Experimental data as given in patent US20070128217A1 (priority 2003, published 2007).

Experiments:
[1] = tested on: rabbit serum obtained by immunizing a rabbit with the SARS-CoV strain Frankfurt 1; type: binding; set-up: Binding of a rabbit serum to linear peptides / Binding of a rabbit serum to looped peptides / Rabbit serum linear peptides / Rabbit serum looped peptides / Binding of a rabbit serum to linear peptides of protein N of SARS-CoV Urbani (Rabbit serum linear peptides) / Binding of a rabbit serum to looped/cyclic peptides of protein N of SARS-CoV Urbani (Rabbit serum looped peptides): unit not given here
[2] = tested on: control sera (pooled serum of ten healthy LUMC hospital workers; commercial negative donor pooled serum from the Dutch bloodbank); type: binding, human; set-up: Binding of Control serum LUMC to linear peptides / Binding of Control serum Blood-bank to linear peptides / Binding of Control serum LUMC to looped peptides / Binding of Control Serum Blood-Bank to Looped peptides / Binding of Control serum LUMC to linear peptides of the protein M of SARS-CoV Urbani / Binding of Control serum Blood-bank to linear peptides of the protein M of SARS-CoV Urbani / Binding of Control serum LUMC to looped peptides of the protein M of SARS-CoV Urbani / Binding of Control Serum Blood-Bank to Looped peptides of the protein M of SARS-CoV Urbani: unit not given here
[3] = tested on: antibodies in sera from SARS patients (sera 1a, 1b, 2, 6, 37, 62, London, SARS-yellow, SARS-green); type: binding, human; set-up: Binding of serum 6 to linear peptides of protein X1 of SARS-CoV Urbani / Binding of serum 37 to linear peptides of protein X1 of SARS-CoV Urbani / Binding of serum 6 to looped/cyclic peptide (PEPSCAN-ELISA) / Binding of serum 37 to looped/cyclic peptide (PEPSCAN-ELISA) / Binding of serum 37 to looped/cyclic peptides of protein X1 of SARS-CoV Urbani / Binding of serum 6 to linear peptides of protein X2 / Binding of serum 37 to linear peptides of protein X2 / Binding of serum 37 to looped/cyclic peptides of protein X2 of SARS-CoV Urbani / Binding of serum 6 to linear peptides of protein M of SARS-CoV Urbani / Binding of serum 37 to linear peptides of protein M of SARS-CoV Urbani / Binding of serum 6 to looped/cyclic peptides of protein M of SARS-CoV Urbani / Binding of serum 37 to looped/cyclic peptides of protein M of SARS-CoV Urbani / Binding of serum 6 to linear peptides of protein X3 of SARS-CoV Urbani / Binding of serum 37 to linear peptides of protein X3 of SARS-CoV Urbani / Binding of serum 37 to looped/cyclic peptides of protein X3 of SARS-CoV Urbani / Binding of serum 6 to linear peptides of protein X4 of SARS-CoV Urbani / Binding of serum 37 to linear peptides of protein X4 of SARS-CoV Urbani / Binding of serum 37 to looped/cyclic peptides of protein X4 of SARS-CoV Urbani / Binding of serum 6 to linear peptides of protein X5 of SARS-CoV Urbani / Binding of serum 37 to linear peptides of protein X5 of SARS-CoV Urbani / Binding of serum 37 to looped/cyclic peptides of protein X5 of SARS-CoV Urbani / Binding of serum 6 to linear peptides of protein N of SARS-CoV Urbani / Binding of serum 37 to linear peptides of protein N of SARS-CoV Urbani / Binding of serum 6 to linear peptide (PEPSCAN-ELISA) / Binding of serum 1a to looped/cyclic peptides of protein N of SARS-CoV Urbani / Binding of serum 1b to looped/cyclic peptides of protein N of SARS-CoV Urbani / Binding of serum 2 to looped/cyclic peptides of protein N of SARS-CoV Urbani / Binding of serum 6 to looped/cyclic peptides of protein N of SARS-CoV Urbani / Binding of serum 37 to looped/cyclic peptides of protein N of SARS-CoV Urbani / Binding of serum 62 to looped/cyclic peptides of protein N of SARS-CoV Urbani / Binding of serum London to looped/cyclic peptides of protein N of SARS-CoV Urbani / Binding of serum SARS-green to looped/cyclic peptides of protein N of SARS-CoV Urbani: unit not given here

VIGFLFLAWIMLLQF
Rabbit serum linear peptides [1]: 0.3
Rabbit serum looped peptides [1]: 0.3
Binding of Control Serum Blood-Bank to Looped peptides of the protein M of SARS-CoV Urbani [2]: 0.7
Binding of Control serum Blood-bank to linear peptides of the protein M of SARS-CoV Urbani [2]: 0.5
Binding of Control serum LUMC to linear peptides of the protein M of SARS-CoV Urbani [2]: 0.3
Binding of Control serum LUMC to looped peptides of the protein M of SARS-CoV Urbani [2]: 0.7
Binding of serum 1a to linear peptides of protein M of SARS-CoV Urbani [3]: 0.7
Binding of serum 1a to looped/cyclic peptides of protein M of SARS-CoV Urbani [3]: 0.7
Binding of serum 1b to linear peptides of protein M of SARS-CoV Urbani [3]: 0.4
Binding of serum 1b to looped/cyclic peptides of protein M of SARS-CoV Urbani [3]: 0.4
Binding of serum 2 to linear peptides of protein M of SARS-CoV Urbani [3]: 0.4
Binding of serum 2 to looped/cyclic peptides of protein M of SARS-CoV Urbani [3]: 0.5
Binding of serum 6 to linear peptides of protein M of SARS-CoV Urbani [3]: 0.3
Binding of serum 6 to looped/cyclic peptides of protein M of SARS-CoV Urbani [3]: 0.5
Binding of serum 37 to linear peptides of protein M of SARS-CoV Urbani [3]: 0.7
Binding of serum 37 to looped/cyclic peptides of protein M of SARS-CoV Urbani [3]: 0.5
Binding of serum 62 to linear peptides of protein M of SARS-CoV Urbani [3]: 0.7
Binding of serum 62 to looped/cyclic peptides of protein M of SARS-CoV Urbani [3]: 0.7
Binding of serum London to linear peptides of protein M of SARS-CoV Urbani [3]: 0.3
Binding of serum London to looped/cyclic peptides of protein M of SARS-CoV Urbani [3]: 0.2
Binding of serum SARS-green to linear peptides of protein M of SARS-CoV Urbani [3]: 0.2
Binding of serum SARS-green to looped/cyclic peptides of protein M of SARS-CoV Urbani [3]: 0.3
Binding of serum SARS-yellow to linear peptides of protein M of SARS-CoV Urbani [3]: 0.0
Binding of serum SARS-yellow to looped/cyclic peptides of protein M of SARS-CoV Urbani [3]: 0.6

MRCWLCWKCKSKNPL
Binding of a rabbit serum to linear peptides [1]: 0.1
Binding of a rabbit serum to looped peptides [1]: 0.5
Binding of Control Serum Blood-Bank to Looped peptides [2]: 0.2
Binding of Control serum Blood-bank to linear peptides [2]: 0.9
Binding of Control serum LUMC to linear peptides [2]: 0.8
Binding of Control serum LUMC to looped peptides [2]: 0.4
Binding of serum 1a to looped/cyclic peptide (PEPSCAN-ELISA) [3]: 0.2
Binding of serum 1b to looped/cyclic peptide (PEPSCAN-ELISA) [3]: 0.2
Binding of serum 2 to looped/cyclic peptide (PEPSCAN-ELISA) [3]: 0.0
Binding of serum 6 to looped/cyclic peptide (PEPSCAN-ELISA) [3]: 0.1
Binding of serum 37 to looped/cyclic peptide (PEPSCAN-ELISA) [3]: 0.2
Binding of serum 62 to looped/cyclic peptide (PEPSCAN-ELISA) [3]: 0.3
Binding of serum London to looped/cyclic peptide (PEPSCAN-ELISA) [3]: 0.2
Binding of serum SARS-green to looped/cyclic peptide (PEPSCAN-ELISA) [3]: 0.1
Binding of serum SARS-yellow to looped/cyclic peptide (PEPSCAN-ELISA) [3]: 0.2
Recognition of the peptide by sera of SARS-CoV infected individuals, and form (linear, looped/cyclic) in which it is recognized [3]: recognized in linear form

YQLRARSVSPKLFIR
Recognition of the peptide by the rabbit serum [1]: recognized
Binding of Control Serum Blood-Bank to Looped peptides [2]: 0.7
Binding of Control serum Blood-bank to linear peptides [2]: 0.6
Binding of Control serum LUMC to linear peptides [2]: 0.6
Binding of Control serum LUMC to looped peptides [2]: 0.7
Binding of serum 1a to linear peptides of protein X4 of SARS-CoV Urbani [3]: 0.7
Binding of serum 1a to looped/cyclic peptides of protein X4 of SARS-CoV Urbani [3]: 0.7
Binding of serum 1b to linear peptides of protein X4 of SARS-CoV Urbani [3]: 0.6
Binding of serum 1b to looped/cyclic peptides of protein X4 of SARS-CoV Urbani [3]: 0.4
Binding of serum 2 to linear peptides of protein X4 of SARS-CoV Urbani [3]: 0.6
Binding of serum 2 to looped/cyclic peptides of protein X4 of SARS-CoV Urbani [3]: 0.6
Binding of serum 6 to linear peptides of protein X4 of SARS-CoV Urbani [3]: 0.7
Binding of serum 6 to looped/cyclic peptides of protein X4 of SARS-CoV Urbani [3]: 1.2
Binding of serum 37 to linear peptides of protein X4 of SARS-CoV Urbani [3]: 0.8
Binding of serum 37 to looped/cyclic peptides of protein X4 of SARS-CoV Urbani [3]: 0.7
Binding of serum 62 to linear peptides of protein X4 of SARS-CoV Urbani [3]: 0.7
Binding of serum 62 to looped/cyclic peptides of protein X4 of SARS-CoV Urbani [3]: 0.6
Binding of serum London to linear peptides of protein X4 of SARS-CoV Urbani [3]: 0.8
Binding of serum London to looped/cyclic peptides of protein X4 of SARS-CoV Urbani [3]: 1.4
Binding of serum SARS-green to linear peptides of protein X4 of SARS-CoV Urbani [3]: 0.7
Binding of serum SARS-green to looped/cyclic peptides of protein X4 of SARS-CoV Urbani [3]: 0.4
Binding of serum SARS-yellow to linear peptides of protein X4 of SARS-CoV Urbani [3]: 0.6
Binding of serum SARS-yellow to looped/cyclic peptides of protein X4 of SARS-CoV Urbani [3]: 0.9
